Assay results: patent publication US20180000942A1, “COMPOSITIONS FOR DRUG ADMINISTRATION” (priority 2013, published 2018)

Experiments:
blood D-glucose = assay: Glucagon eye drops with surfactant, blood D-glucose; details: 0.5% surfactant plus glucagon (30 μg) eye drops
Protocol: Glucagon absorption from the eye was measured in rats given eye drops containing various surfactants plus glucagon (30 μg) (Eli Lilly, Indianapolis, Ind.) by monitoring an elevation in blood D-glucose levels. In these experiments, rats were anesthetized with sodium pentobarbital rather than xylazine/ketamin.
Paired animals that receive eye drops containing the surfactant alone, or glucagon alone, were compared to animals receiving eye drops with the surfactant plus glucagon.

blood glucose [1] = assay: Insulin eye drops with absorption enhancer in xylazine/ketamine anesthetized rats, blood glucose
[2] = test system: Aspergillus niger (ATCC No. 16404); assay: Log reduction of microorganisms in cultures with alkylglycoside; assay type: cell-based; details: for Log reduction of cultures: PBS pH 7, 1 mg/mL PYY; for Log reduction of microorganisms: PBS pH 7, […] BSA
From the text: (§1) 20110-2209. The viable microorganisms used in the invention were not more than five passages removed from the original ATCC culture. As described herein, one passage is defined as the transfer of organisms from an established culture to fresh medium and all transfers are counted.
(§2) The culture conditions for the inoculum culture is substantially as described in Table IV. For example, suitable media can include but is not limited to, Soybean-Casein Digest or Sabouraud Dextrose Agar Medium. […]
(§3) The suspension should be refrigerated if it is not used within 2 hours. To confirm the initial cfu per mL estimate, the number of cfu per mL in each suspension was determined using the conditions of media and microbial recovery incubation times listed in Table IV (e.g., from about 3 to about 7 days). This value serves to calibrate the size of inoculum used in the test. The bacterial and yeast suspensions were used within 24 hours of harvest; whereas the fungal preparation can be stored under refrigeration for up to 7 days.
(§4) To determine which alkylglycoside formulations have antibacterial activity, the formulations were prepared in phosphate buffered saline (PBS) at pH 7. As a source of nutrition, either 1.5 mg/mL bovine serum albumin (BSA; see Tables V and VI) or 1 mg/mL of PYY was added (see Table VII) to the medium. BSA (CAS Number: 9048-46-8) was obtained from Sigma-Aldrich, St. Louis, Mo., USA, n-dodecyl-4-O-α-D-glucopyranosyl-β-D-glucopyranoside and n-tetradecyl-4-O-α-D-glucopyranosyl-β-D-glucopyranoside were obtained from Anatrace Inc., Maumee, Ohio, USA, and PYY was obtained from Bachem California Inc., Torrance, Calif., USA.
(§5) Antibacterial activity of the alkylglycosides were conducted in four sterile, capped bacteriological containers of suitable size into which a sufficient volume of alkylglycoside solution had been transferred. Each container was inoculated with one of the prepared and standardized inoculums and mixed. The volume of the suspension inoculum was between about 0.5% and about 1.0% of the volume of the alkylglycoside solution. […]. To determine the level of inhibition of growth, or reduction of growth based on a logarithmic scale, the initial concentration of viable microorganisms in each test preparation was estimated based on the concentration of microorganisms in each of the standardized inoculum as determined by the plate-count method. The inoculated containers were then incubated at about 22.5° C.±2.5. The growth or non-growth of the microorganisms in each culture/container were again determined at day 14 and day 28. The number of cfu present in each calculation was determined by the plate-count procedure standard in the art for the applicable intervals. The change in the orders of magnitude of bacterium and/or fungi was then determined by subtracting the first calculated log 10 values of the concentrations of cfu per mL present at the start or beginning (e.g., day 0), from the log 10 values of the concentration of cfu per mL for each microorganism at the applicable test intervals (e.g., day 14 and day 28; see Tables V, VI and VII).

[3] = test system: Candida albicans (ATCC No. 10231); assay: as above; assay type: cell-based; details: for Log reduction of cultures: PBS pH 7, 1 mg/mL PYY; for Log reduction of microorganisms: PBS pH 7, […] BSA
From the text: as §1, §2, §3, §4, §5

[4] = test system: Escherichia coli (ATCC No. 8739); assay: as above; assay type: cell-based; details: for Log reduction of cultures: PBS pH 7, 1 mg/mL PYY
From the text: as §1, §2, §3, §4, §5

[5] = test system: Staphylococcus aureus (ATCC No. 6538); assay: as above; assay type: cell-based; details: for Log reduction of cultures: PBS pH 7, 1 mg/mL PYY; for Log reduction of microorganisms: PBS pH 7, […] BSA
From the text: as §1, §2, §3, §4, §5

[6] = Oral phenylephrine tablets with alkylsaccharide; assay type: in vivo, canine
Protocol: In a canine model, subjects were dosed orally with various phenylephrine (PE) tablet formulations, and blood samples were taken to determine the rate of parent phenyl ethyl phenylephrine absorption. Blood levels of parent phenylephrine were measured. Three subject groups were created with each alkylsaccharide test group containing five subjects in each test group. All subject groups received 10 mg of phenylephrine as a single tablet. Each subject was in the fasting state for overnight and two hours post dose. Blood samples were taken at pre-dose, 5, 10, 15, 30, 45 min., 1, 2, and 3 hours.
Comparator was the standard 30 mg (total weight including excipients) phenylephrine tablet was no absorption enhancer. Group number 2 tablets contain the alkylsaccharide designated A3, which is n-dodecyl-beta-D-maltoside in the amounts of 2.5 mg, 5 mg, and 7.5 mg, respectively. Group number three tablets contain the alkylsaccharide designated B3, which is sucrose monododecanoate, in the amounts of 5 mg, 10 mg, and 20 mg, respectively.

[7] = no alkylsaccharide, cited from earlier work
human nasal epithelium = assay: Irritation of nasal mucosa on daily intranasal administration; details: 47 days
food intake = details: injection; cited from earlier work
blood glucose [8] = assay: Intranasal insulin with […] TDM in anesthesia-induced hyperglycemia model; assay type: in vivo, mouse; details: minus […] TDM
From the text: Intranasal administration of drugs or agents are possible in animal models e.g. mice and rats, although the nasal opening in is very small. In the experiments and results described herein, an anesthesia-induced hyperglycemia model was used (described in Examples above). Hyperglycemic animals were induced by an intraperitoneal (IP) injection containing xylazine-ketamine and blood glucose levels were monitored over a period of time. Immediately after the xylazine-ketamine injection, there was an increase in the blood glucose levels as shown in FIG. 2 (closed dark circles), and blood glucose levels were about 450 mg/dl. […] Blood glucose levels peak to about 482 mg/dl by 30 minutes after the xylazine-ketamine injection (FIG. 2). […] At about the 75 minute time point, blood glucose levels gradually returned to the baseline level in a normoglycemic mouse, or about 80-100 mg/dl.

With `CCCCCCCCCCO[C@@H]1O[C@H](CO)[C@@H](O[C@H]2O[C@H](CO)[C@@H](O)[C@H](O)[C@H]2O)[C@H](O)[C@H]1O` [Decyl Maltoside, decyl-β-D-maltoside] the “level of D-glucose in blood after eye drops with surfactant plus glucagon, in words” value (blood D-glucose) was “increase significantly” and the “effect as absorption enhancer for ocular insulin (blood glucose lowering), in words” value (from here on “effect … (blood glucose lowering), in words”) (blood glucose [1]; 0.5% enhancer) was “prompt and sustained fall in blood glucose levels”.
With `CCCCCCCCCCCCO[C@@H]1O[C@H](CO)[C@@H](O[C@H]2O[C@H](CO)[C@@H](O)[C@H](O)[C@H]2O)[C@H](O)[C@H]1O` [Dodecyl Maltoside, n-Dodecyl-4-O-α-D-glucopyranosyl-β-D-glucopyranoside] the “Log reduction of cultures” value ([2]; Day 14) was 4.7 orders of orders of magnitude reduction, the “Log reduction of cultures” value ([2]; Day 28) was 4.7 orders of orders of magnitude reduction and the “Log reduction of microorganisms” value ([2]; Day 14) was 0.7 orders of orders of magnitude reduction. The “Log reduction of microorganisms” value ([2]; Day 28) was “No growth”, the “Log reduction of cultures” value ([3]; Day 14) was “≧4.5 orders of orders of magnitude reduction” and the “Log reduction of cultures” value ([3]; Day 28) was “≧4.5 orders of orders of magnitude reduction”. The “Log reduction of microorganisms” value ([3]; Day 14) was 3.0 orders of orders of magnitude reduction, the “Log reduction of microorganisms” value ([3]; Day 28) was “≧5.3 orders of orders of magnitude reduction” and the “Log reduction of cultures” value ([4]; Day 14) was “≧5 orders of orders of magnitude reduction”. For the same molecule, the “Log reduction of cultures” value ([4]; Day 28) was “≧5 orders of orders of magnitude reduction”, the “Log reduction of microorganisms” value ([4]; PBS pH 7, […] BSA, Day 28) was 0.1 orders of orders of magnitude reduction and the “Log reduction of cultures” value ([5]; Day 14) was “≧4.9 orders of orders of magnitude reduction”. For the same molecule, the “Log reduction of cultures” value ([5]; Day 28) was “≧4.9 orders of orders of magnitude reduction”, the “Log reduction of microorganisms” value ([5]; Day 14) was “≧5.2 orders of orders of magnitude reduction” and the “Log reduction of microorganisms” value ([5]; Day 28) was “≧5.2 orders of orders of magnitude reduction”. The “increase of oral bioavailability of phenylephrine in compressed tablets” value ([6]; dog, in vivo, po) was “up to 56%”, the “effect … (blood glucose lowering), in words” value (blood glucose [1]; 0.5% enhancer) was “equally effective” and the “effect … (blood glucose lowering), in words” value (blood glucose [1]; 0.5% enhancer, listed as dodecyl-β-D-maltoside) was “prompt and sustained fall in blood glucose levels”.
With `CCCCCCCCCCCCCO[C@@H]1O[C@H](CO)[C@@H](O[C@H]2O[C@H](CO)[C@@H](O)[C@H](O)[C@H]2O)[C@H](O)[C@H]1O` [Tridecyl Maltoside, tridecyl-β-D-maltoside] the “level of D-glucose in blood after eye drops with surfactant plus glucagon, in words” value (blood D-glucose) was “increase significantly”, the “effect … (blood glucose lowering), in words” value (blood glucose [1]; 0.5% enhancer) was “effective” and the “effect … (blood glucose lowering), in words” value (blood glucose [1]; […] enhancer) was “sustained for the two hour time course of the experiment”.
For `CCCCCCCOC1O[C@H](CO)[C@@H](O)[C@H](O)[C@H]1O` (stereo partly shown) [heptylglucoside, heptylglucopyranoside], the “effect … (blood glucose lowering), in words” value (blood glucose [1]; 0.5% enhancer) was “ineffective”.
For `CCCCCCOC1O[C@H](CO)[C@@H](O)[C@H](O)[C@H]1O` (stereo partly shown) [hexylglucoside, Hexylglucopyranoside], the “effect … (blood glucose lowering), in words” value (blood glucose [1]; 0.5% enhancer) was “ineffective”.
With `CCCCCCCCCOC1O[C@H](CO)[C@@H](O)[C@H](O)[C@H]1O` (stereo partly shown) [nonylglucoside, nonylglucopyranoside] the “effect … (blood glucose lowering), in words” value (blood glucose [1]; 0.5% enhancer) was “effectively stimulated insulin absorption”, the “blood glucose level before reduction (from)” value (blood glucose [1]; eye drops insulin + 0.5% enhancer, initial value) was 297 mg/dL and the “blood glucose level after reduction (to)” value (blood glucose [1]; eye drops insulin + 0.5% enhancer, reduced value) was 150 mg/dL.
In the case of `Cc1cc2c(s1)Nc1ccccc1N=C2N1CCN(C)CC1` [olanzapine, Olanzapine], the “time to peak concentrations” value ([7]; following an oral dose) is listed as “approximately 6 hours” and the “dose metabolized by first pass before reaching the systemic circulation” value [7] is listed as “approximately 40%”.
With `CCCCCCCCCCCC(=O)OC[C@H]1O[C@H](O[C@]2(CO)O[C@H](CO)[C@@H](O)[C@@H]2O)[C@H](O)[C@@H](O)[C@@H]1O` [sucrose dodecanoate, sucrose monododecanoate] the “increase of oral bioavailability of phenylephrine in compressed tablets” value ([6]; maximum over the loadings tested) was “up to 50%” and the “irritation of the nasal mucosa” value (human nasal epithelium) was “no observable irritation”.
In the case of “PYY: gut hormone fragment peptide PYY3-36”, the “reduction of food eaten versus usual” value (food intake) is given as 30%.
For decylsucrose, the “Blood Glucose Concentration” value (blood glucose [1]; eye drops insulin + 0.5% enhancer, time 0 min) was 313 mg/dL and the “Blood Glucose Concentration” value (blood glucose [1]; eye drops insulin + 0.5% enhancer, time 120 min) was 164 mg/dL.
In the case of “insulin alone: insulin (Humalog), same dosage, minus 0.25% TDM”, the “return of blood glucose to normoglycemic levels” value (blood glucose [8]) is reported as “never return to normoglycemic levels” and the “time at which blood glucose levels start to decline” value (blood glucose [8]; same dosage) is reported as about 120 minute time mark.
